Data reported in US12427200B2 (priority 2019, dated 2025).
Values joined by “and” are separate entries in the source; they are usually repeats but may differ in a detail not shown here. Equal values may be shown once.

Experiments:
[1] = tested on: A/Perth/261/2009 (H1N1), H275Y mutation; conditions: mouse, in vivo
[2] = tested on: H3N2 E119V (A/Texas/12/2007); format: cell-based, Influenza A virus
[3] = tested on: A/Perth/261/2009 (H1N1) H275Y; parameters: species or system BALB/c mice; conditions: mouse, in vivo
[4] = tested on: A/Texas/23/2012 (H1N1) H275Y; parameters: species or system BALB/c mice; conditions: mouse, in vivo
[5] = tested on: NA variants H275Y (H1N1), E119V and R292K (H3N2), R152K (B); assay: biochemical; format: biochemical, Influenza virus
[6] = tested on: H1N1 H275Y (A/Texas/23/2012); format: cell-based, Influenza A virus
[7] = molecular target: neuraminidase of live influenza A (H3N2) viruses (Influenza A virus, UniProt D1FVK3, I119V); assay: biochemical
[8] = molecular target: NA variants H275Y (H1N1), E119V and R292K (H3N2), R152K (B) (Influenza A virus (H3N2), UniProt D1FVK3, I119V); assay: biochemical; format: biochemical

Compound | Median Survival [1] | EC50 [2] [nM] | Survival [3] | Percent Body Weight (grams) ([3]; po) | Percent Body Weight (grams) [4] | Protection from lethal challenge [4] | % Survival [1] [%] | Loss in potency against variants (up to) [5] [fold] | EC50 [6] [nM] | IC50 [7] [nM] | IC50 [8] [nM]
CCOC(=O)C1=C[C@@H](OC(CC)CC)[C@H](NC(C)=O)[C@@H](N)C1 [Oseltamivir phosphate] | 7 |  |  |  |  |  |  |  |  |  | 
CCOC(=O)C1=C[C@@H](OC(CC)CC)[C@H](NC(C)=O)[C@@H](N)C1 [Oseltamivir, oseltamivir] |  | > 100 | no survivors | 89% and 84% and 82% and 74% and 100% and 102% and 99% | 84% and 78% and 100% and 97% and 92% | failed to protect | 20 | > 100 | > 100 |  | 
CC(=O)N[C@H]1[C@H]([C@H](O)[C@H](O)CO)OC(C(=O)O)=C[C@@H]1N=C(N)N [Zanamivir, zanamivir] |  | 74 |  |  |  |  |  | > 10 | 93.8 | 3.08 | 3.8
